Laboratory results published in paper PMC9299220, “Inhibition of JMJD6 by 2‐Oxoglutarate Mimics” (Chemmedchem, 2021).
Entries after “also recorded” stand apart in the source; their conditions may differ. Like-named read-outs stand apart in the source and are kept apart here.

Legend:
JMJD6Δ363‐403 = target: T1, JMJD6Δ363‐403 (Homo sapiens, UniProt Q6NYC1); assay: MALDI-TOF MS assay of JMJD6-catalysed lysine hydroxylation of LUC7L2 267-278 peptide; format: biochemical; conditions: for IC50: n=3, 10 μM JMJD6Δ363‐403, 100 μM LUC7L2 267‐278, 100 μM Fe(II), 400 μM L-sodium ascorbate, 20 μM 2OG, inhibitor 0–10 mM; for potency of JMJD6 inhibition (in words): MS assay
T1 construct: made in house
Text: Initially, we used the MS assay to screen a range of potential JMJD6 inhibitors, based on scaffolds identified as inhibitors of other 2OG oxygenases, grouped into: (i) TCA cycle and related acidic compounds; (ii) 2OG mimics / broad spectrum 2OG oxygenase inhibitors; (iii) PHD inhibitors in clinical use / investigation; (iv) tricarbonyl type compounds, which are known iron oxygenase inhibitors; (v) reported inhibitors of the JmjC KDMs.[23]
Figure S1. Initial inhibition assays. Bar charts showing extent of JMJD6 inhibition by 0.1, 1, and 10 mM compound: (A) TCA cycle intermediates/related compounds, (B) 2OG analogues, (C) PHD inhibitors, (D) Tricarbonyl type compounds, (E) JmjC KDM inhibitors.
Values represent the mean ± SD (n = 3). Conditions: 10 µM JMJD6Δ363-403 (prepared as […]
reported) and 100 µM LUC7L2267-278 ([…], with a C-terminal amide) at 37 °C in 50 mM HEPES pH 7.5 buffer with 100 µM (NH4)2Fe(SO4)2.6H2O (Sigma-Aldrich), […]
varied inhibitor concentrations (0-10 mM). Reactions were quenched and products analysed by MALDI-TOF MS following a reported procedure.[11]
(1 picture or pasted object on this page, not shown here)

[1] = target: T2, JMJD6Δ363‐403.Zn(II).2OG complex (Homo sapiens, UniProt Q6NYC1); assay: Ligand-observed CPMG-edited 1H NMR 2OG displacement assay from JMJD6Δ363‐403.Zn(II).2OG complex; format: binding; conditions: for Kd: 1H NMR, 60 µM EDTA-treated JMJD6, 200 µM Zn(II), 20 µM 2OG, 50 mM Tris-D11 pH 7.0, 10% D2O, mean ± SD (n=3), read-out: KD app (apparent binding constant) (converted); for extent of 2OG displacement from JMJD6Δ363‐403.Zn(II).2OG complex (in words): initial screen, fixed inhibitor concentration (400 µM ligand), Figure S6
T2 construct: made in house
Text: We investigated whether the inhibitors compete for binding to JMJD6^Δ363‐403, using ^1H NMR to investigate the extent to which they displace 2OG from the JMJD6^Δ363‐403.Zn(II).2OG complex, initially with a fixed inhibitor concentration (Figure S6).[21, 22]
Figure S6: 2OG displacement ligand-binding assays with JMJD6 using CPMG-edited 1H NMR. Bar charts show the extent of 2OG displacement for: (A) TCA cycle intermediates, (B) 2OG mimetics, (C) PHD inhibitors, (D) tricarbonyl type compounds, (E) KDM inhibitors. Conditions: 60 µM EDTA-treated JMJD6∆363-403, 200 µM Zn(II), 10 µM 2OG, and 400 µM of the ligand, all in 50 mM Tris-D11, pH 7.0 in 10% D2O. Values represent the mean (n = 3) ± standard deviation (SD). Eq DMSO: DMSO control without inhibitor.
Figure S7: KDapp determination for TCA cycle intermediates / related compounds binding to JMJD6. Plots used for the determination of KDapp values of (A) fumarate and (B) […]
succinate. […] Conditions: 60 µM
EDTA-treated JMJD6, 200 µM Zn(II), 20 µM 2OG, 0-400 µM ligand, all in 50 mM Tris-D11 pH 7.0 in 10% D2O. Values represent the mean ± SD (n = 3). Compound structures are […]
Figure S8: KDapp determination for pyridine derivative binding to JMJD6. Plots used for determination of KDapp values (A) 2,4-PDCA and (B) 2,4-BPDCA.
Conditions: 60 µM EDTA-treated
D2O. Values represent the mean ± SD (n = 3).
Figure S9: KDapp determination for PHD inhibitor binding to JMJD6. Plots used for the determination of KDapp value (A) AKB-6899 and (B) Vadadustat.
Conditions: 60 µM EDTA-treated JMJD6,
Values represent the mean ± SD (n = 3).
Conditions for NMR assays
NMR was used to measure 2OG displacement from JMJD6 caused by inhibitors according to the method of Leung et al. The Carr-Purcell-Meiboom-Gill (CPMG) pulse sequence coupled with periodic refocusing of J evolution by coherence transfer (PROJECT) method was applied for spectral editing was used to edit out protein signals. In the initial screen […]
2OG and 400 µM inhibitor; the 1H NMR-spectra of 2OG were then analysed. To determine the apparent binding constant (KDapp), 20 µM of 2OG was titrated against increasing concentrations of JMJD6Δ363-403 in the presence of Zn(II) [JMJD6∆363-403.Zn(II)]. Thus, JMJD6∆363-403.Zn(II) was added until the methylene signals of 2OG were no longer observed, indicating complete 2OG binding to JMJD6. The extent of 2OG (%) bound to JMJD6Δ363-403 was calculated and the values were plotted against the concentration of JMJD6Δ363-403 using OriginTM. The KDapp of 2OG was calculated as reported.[11] To determine the KDapp for the inhibitor, the recovery of 2OG-signals was monitored in the presence of varied concentrations of inhibitor (0-800 µM).
% 2OG Displacement = x 100 […]
where, I2OG is the integral of the 2OG 1H signal in the presence of both inhibitor and JMJD6∆363-403.Zn(II)], I2OG(0) is the integral of 2OG in the presence of JMJD6∆363-403.Zn(II)] without inhibitor, I2OG(blank) is the integral of 2OG in the absence of both JMJD6∆363-403.Zn(II)] and inhibitor, ∆obs is the change in the integral of 2OG resulting from titration, ∆max represents the maximum change of the monitored NMR parameter (2OG integral), [L]0 is the titrated ligand concentration, and [P]0 is the JMJD6∆363-403concentration. 5-10% error was typically allowed in the curve fitting process.

SMILES | IC50 (JMJD6Δ363‐403; mean±SD, read-out: IC50) | IC50 (JMJD6Δ363‐403; IC50, mean±SD) | further results
O=C(O)CC(O)(CC(=O)O)C(=O)O [Citrate] | 987 ± 1.3 µM | – | –
O=C(O)CNC(=O)c1ncc(-c2cccc(Cl)c2)cc1O [Vadadustat] | 7 ± 1.6 µM | – | Kd [1]: 14 µM; extent of 2OG displacement from JMJD6Δ363‐403.Zn(II).2OG complex (in words) [1]: most efficiently displaced 2OG
O=C(O)CNC(=O)c1ncc(-c2cccc(F)c2)cc1O [AKB‐6899] | 9 ± 1.5 µM | – | Kd [1]: 3 µM; extent of 2OG displacement from JMJD6Δ363‐403.Zn(II).2OG complex (in words) [1]: most efficiently displaced 2OG
O=C(CCC1CCCC1)c1c(O)n(C2CCCCC2)c(=O)n(C2CCCCC2)c1=O [compound 10] | – | ≥ 1000 µM | –
Cn1c(O)c(C(=O)CCc2ccccc2)c(=O)n(C)c1=O [compound 7] | – | 43 ± 1.1 µM | –
O=C(O)/C=C/C(=O)O [Fumarate] | 165 ± 1.4 µM | – | Kd [1]: 109 µM; extent of 2OG displacement from JMJD6Δ363‐403.Zn(II).2OG complex (in words) [1]: most efficiently displaced 2OG; potency of JMJD6 inhibition (in words) (JMJD6Δ363‐403): most potent of these compounds
COc1ccccc1CCC(=O)c1c(O)n(C)c(=O)n(C)c1=O [compound 12] | – | 58 ± 1.4 µM | –
O=C(O)CC(=O)C(=O)O [Oxaloacetate] | 204 ± 2 µM | – | –
Cn1c(O)c(C(=O)NCC(=O)O)c(=O)n(C)c1=O [compound 6] | – | 23 ± 1.2 µM | –
COc1cccc(CCC(=O)c2c(O)n(C)c(=O)n(C)c2=O)c1 [compound 13] | – | 135 ± 1.3 µM | –
CCOC(=O)CNC(=O)c1c(O)n(C2CCCCC2)c(=O)n(C2CCCCC2)c1=O [compound 4] | – | 175 ± 1.5 µM | –
O=C(O)CNC(=O)c1c(O)n(C2CCCCC2)c(=O)n(C2CCCCC2)c1=O [GSK1278863, reference compound] | – | 10 ± 1.2 µM | –
O=C(O)c1ccnc(-c2cc(C(=O)O)ccn2)c1 [2,4 BPDCA, 2,2’‐bipyridine‐4,4’‐dicarboxylate, reference compound] | 6 ± 1.6 µM | – | Kd [1]: 7 µM; extent of 2OG displacement from JMJD6Δ363‐403.Zn(II).2OG complex (in words) [1]: most efficiently displaced 2OG
O=C(O)CC[C@H](O)C(=O)O [L‐2HG, 2‐hydroxyglutarate] | 871 ± 1.5 µM | – | –
O=C(O)CC[C@@H](O)C(=O)O [D‐2HG, 2‐hydroxyglutarate] | 622 ± 1.4 µM | – | –
O=C(O)CNC(=O)c1c(O)[nH]c(=O)[nH]c1=O [compound 5] | – | 19 ± 1.3 µM | –
O=C(O)CNC(=O)C(=O)O [NOG, N‐oxalylglycine, reference compound] | 296 ± 1.9 µM | – | extent of 2OG displacement from JMJD6Δ363‐403.Zn(II).2OG complex (in words) [1]: only weakly displaced 2OG; potency of JMJD6 inhibition (in words) (JMJD6Δ363‐403): poor inhibitor; also recorded: not a potent JMJD6 inhibitor
CC(Cc1ccsc1)C(=O)c1c(O)n(C)c(=O)n(C)c1=O (centres unmarked) [compound 17] | – | 22 ± 1.4 µM | –

SMILES | IC50 (JMJD6Δ363‐403; mean±SD, read-out: IC50) | IC50 (JMJD6Δ363‐403; IC50, mean±SD) | further results
Cn1c(O)c(C(=O)CCc2cccs2)c(=O)n(C)c1=O [compound 8] | – | 27 ± 1.4 µM | –
Cn1c(O)c(C(=O)CCc2ccsc2)c(=O)n(C)c1=O [compound 15] | – | ≥ 1000 µM | –
Cc1nc(C(=O)NCC(=O)O)c(O)c2ccc(Oc3ccccc3)cc12 [FG‐4592, reference compound] | 23 ± 1.5 µM | – | –
O=C(O)CNC(=O)CNC(=O)C(=O)O [compound 1] | 189 ± 1.5 µM | – | –
O=C(O)c1ccc(O)c2ncccc12 [IOX1, 5‐carboxy‐8‐hydroxyquinoline, reference compound] | 10 ± 1.5 µM | – | –
Cn1c(O)c(C(=O)CCC2CCCC2)c(=O)n(C)c1=O [compound 11] | – | 67 ± 1.2 µM | –
O=C(O)CCC(=O)O [Succinate] | 261 ± 2.3 µM | – | Kd [1]: 159 µM; extent of 2OG displacement from JMJD6Δ363‐403.Zn(II).2OG complex (in words) [1]: most efficiently displaced 2OG
O=C(O)CC(O)C(=O)O (centres unmarked) [Malate] | 5103 ± 2 µM | – | –
O=C(O)c1ccnc(C(=O)O)c1 [2,4 PDCA, pyridine‐2,4‐dicarboxylate, reference compound] | 13 ± 1.3 µM | – | Kd [1]: 6 µM; extent of 2OG displacement from JMJD6Δ363‐403.Zn(II).2OG complex (in words) [1]: most efficiently displaced 2OG
CN(C)NC(=O)CCC(=O)O [Daminozide, reference compound] | – | 94 ± 1.5 µM | –
CC(Cc1ccsc1)C(=O)c1c(O)n(C)c(=O)n(C)c1=O (centres unmarked) [compound 16] | – | 214 ± 1.4 µM | –
Cn1c(O)c(C(=O)CCC2CC2)c(=O)n(C)c1=O [compound 14] | – | 163 ± 1.3 µM | –
O=C(O)c1ccnc2c(O)cccc12 [compound 2] | 5 ± 1.3 µM | – | –
CC(=O)C(=O)O [Pyruvate] | 2377 ± 1.7 µM | – | –
O=C(O)CCC(=O)NO [compound 3] | 25 ± 2 µM | – | –
O=c1c(-n2ccnn2)c[nH]n1-c1cc(N2CCOCC2)ncn1 [Molidustat, reference compound] | 74 ± 1.6 µM | – | –
CCn1c(O)c(C(=O)CCC2CCCC2)c(=O)n(CC)c1=O [compound 9] | – | ≥ 1000 µM | –
